Test results as given in US20040053786A1, “Insecticidal 1,8-naphthalenedicarboxamides” (priority 2000, published 2004).

- melting point: 215 °C
SMILES: CNC(=O)c1cccc2cccc(NC(=O)c3cccs3)c12 [Compound 120, N-methyl 8-[(2-thienyl)carbonylamino]-1-naphthalenecarboxamide]
